Experimental data from patent US20250171438A1 (Agios Pharmaceuticals, Inc., priority 2022, published 2025).

Molecular target: T1, human PAH with the R408W mutation (Homo sapiens, UniProt P00439, R408W)
T1 construct: expressed in transfected cells
T1 sequence (P00439 1-452 R408W): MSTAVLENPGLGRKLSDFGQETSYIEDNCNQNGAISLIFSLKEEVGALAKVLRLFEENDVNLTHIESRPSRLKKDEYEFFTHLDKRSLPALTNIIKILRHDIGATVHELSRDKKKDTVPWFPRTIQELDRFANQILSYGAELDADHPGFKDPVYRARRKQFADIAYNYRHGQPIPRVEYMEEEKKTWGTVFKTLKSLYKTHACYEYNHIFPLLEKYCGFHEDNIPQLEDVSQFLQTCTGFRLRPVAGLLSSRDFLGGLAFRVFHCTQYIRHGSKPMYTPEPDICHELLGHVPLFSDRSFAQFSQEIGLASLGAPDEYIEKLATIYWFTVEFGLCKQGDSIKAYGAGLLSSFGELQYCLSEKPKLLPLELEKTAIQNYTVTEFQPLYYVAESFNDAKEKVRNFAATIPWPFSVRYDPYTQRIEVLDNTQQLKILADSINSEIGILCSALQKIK
Assay: Cell Based Phenylalanine Flux Assay
Conditions: A375 cells expressing human R408W PAH; 24 hrs compound incubation; 13C-Tyrosine by LC-MS; average where tested multiple times; read-out: AC50

SMILES | AC50 [µM]
Cn1ccc(-c2nnc(C(=O)N3CCc4[nH]cnc4[C@H]3c3nc4c(F)cccc4s3)o2)n1 [Example 1826, (S)-(4-(4-fluorobenzo[d]thiazol-2-yl)-6,7-dihydro-1H-imidazo[4,5-c]pyridin-5(4H)-yl)(5-(1-methyl-1H-pyrazol-3-yl)-1,3,4-oxadiazol-2-yl)methanone] | < 0.5
O=C(c1nnc(-c2cnn(C3CCC3)c2)o1)N1CCc2[nH]cnc2[C@@H]1c1nc2ccccc2s1 [Example 1827, (R)-(4-(benzo[d]thiazol-2-yl)-6,7-dihydro-1H-imidazo[4,5-c]pyridin-5(4H)-yl)(5-(1-cyclobutyl-1H-pyrazol-4-yl)-1,3,4-oxadiazol-2-yl)methanone] | 1 to 5
O=C(c1nnc(-c2cnn(C3CCC3)c2)o1)N1CCc2[nH]cnc2[C@H]1c1nc2ccccc2s1 [Example 1828] | < 0.5
O=C(c1nnc(-c2ccc(C(F)(F)F)cn2)o1)N1CCc2[nH]cnc2[C@@H]1c1nc2ccccc2s1 [Example 1829, (R)-(4-(benzo[d]thiazol-2-yl)-6,7-dihydro-1H-imidazo[4,5-c]pyridin-5(4H)-yl)(5-(5-(trifluoromethyl)pyridin-2-yl)-1,3,4-oxadiazol-2-yl)methanone] | 1 to 5
O=C(c1nnc(-c2ccc(C(F)(F)F)cn2)o1)N1CCc2[nH]cnc2[C@H]1c1nc2ccccc2s1 [Example 1830] | 0.5 to 1
O=C(c1oc(COC(F)(F)F)nc1C(F)F)N1CCc2[nH]cnc2[C@H]1c1nc2ccccc2s1 [Example 1831] | < 0.5
O=C(c1oc(COC(F)(F)F)nc1C(F)F)N1CCc2[nH]cnc2[C@@H]1c1nc2ccccc2s1 [Example 1832, (R)-(4-(benzo[d]thiazol-2-yl)-6,7-dihydro-1H-imidazo[4,5-c]pyridin-5(4H)-yl)(4-(difluoromethyl)-2-((trifluoromethoxy)methyl)oxazol-5-yl)methanone] | 1 to 5
CC(C)(F)c1nnc(C(=O)N2CCc3[nH]cnc3[C@@H]2c2nc3ccccc3s2)o1 [Example 1833, (R)-(4-(benzo[d]thiazol-2-yl)-6,7-dihydro-1H-imidazo[4,5-c]pyridin-5(4H)-yl)(5-(2-fluoropropan-2-yl)-1,3,4-oxadiazol-2-yl)methanone] | 1 to 5
CC(C)(F)c1nnc(C(=O)N2CCc3[nH]cnc3[C@H]2c2nc3ccccc3s2)o1 [Example 1834] | < 0.5
CC(C)(F)c1nnc(C(=O)N2CCc3[nH]cnc3[C@@H]2c2nc3c(F)cccc3s2)o1 [Example 1835, (R)-(4-(4-fluorobenzo[d]thiazol-2-yl)-6,7-dihydro-1H-imidazo[4,5-c]pyridin-5(4H)-yl)(5-(2-fluoropropan-2-yl)-1,3,4-oxadiazol-2-yl)methanone] | 1 to 5
CC(C)(F)c1nnc(C(=O)N2CCc3[nH]cnc3[C@H]2c2nc3c(F)cccc3s2)o1 [Example 1836, (S)-(4-(4-fluorobenzo[d]thiazol-2-yl)-6,7-dihydro-1H-imidazo[4,5-c]pyridin-5(4H)-yl)(5-(2-fluoropropan-2-yl)-1,3,4-oxadiazol-2-yl)methanone] | < 0.5
O=C(C1CN(c2ccc(F)cn2)C1)N1CCc2[nH]cnc2[C@H]1c1nc2ccccc2s1 [Example 1837] | 1 to 5
O=C(C1CN(c2ccc(F)cn2)C1)N1CCc2[nH]cnc2[C@@H]1c1nc2ccccc2s1 [Example 1838, (R)-(4-(benzo[d]thiazol-2-yl)-6,7-dihydro-1H-imidazo[4,5-c]pyridin-5(4H)-yl)(1-(5-fluoropyridin-2-yl)azetidin-3-yl)methanone] | > 5
Cn1nccc1C(=O)N1CCc2[nH]cnc2[C@H]1c1nc2ccccc2s1 [Example 1839] | < 0.5
Cn1nccc1C(=O)N1CCc2[nH]cnc2[C@@H]1c1nc2ccccc2s1 [Example 1840, (R)-(4-(benzo[d]thiazol-2-yl)-6,7-dihydro-1H-imidazo[4,5-c]pyridin-5(4H)-yl)(1-methyl-1H-pyrazol-5-yl)methanone] | > 5
Cn1cc(C(=O)N2CCc3[nH]cnc3[C@H]2c2nc3c(F)cccc3s2)c(C(F)F)n1 [Example 1841, (S)-(3-(difluoromethyl)-1-methyl-1H-pyrazol-4-yl)(4-(4-fluorobenzo[d]thiazol-2-yl)-6,7-dihydro-1H-imidazo[4,5-c]pyridin-5(4H)-yl)methanone] | < 0.5
Cn1cc(C(=O)N2CCc3[nH]cnc3[C@@H]2c2nc3c(F)cccc3s2)c(C(F)F)n1 [Example 1842, (R)-(3-(difluoromethyl)-1-methyl-1H-pyrazol-4-yl)(4-(4-fluorobenzo[d]thiazol-2-yl)-6,7-dihydro-1H-imidazo[4,5-c]pyridin-5(4H)-yl)methanone] | 1 to 5
O=C(c1nnc(-c2cnn(CC(F)(F)F)c2)o1)N1CCc2[nH]cnc2[C@@H]1c1nc2c(F)cccc2s1 [Example 1843, (R)-(4-(4-fluorobenzo[d]thiazol-2-yl)-6,7-dihydro-1H-imidazo[4,5-c]pyridin-5(4H)-yl)(5-(1-(2,2,2-trifluoroethyl)-1H-pyrazol-4-yl)-1,3,4-oxadiazol-2-yl)methanone] | 1 to 5
O=C(c1nnc(-c2cnn(CC(F)(F)F)c2)o1)N1CCc2[nH]cnc2[C@H]1c1nc2c(F)cccc2s1 [Example 1844, (S)-(4-(4-fluorobenzo[d]thiazol-2-yl)-6,7-dihydro-1H-imidazo[4,5-c]pyridin-5(4H)-yl)(5-(1-(2,2,2-trifluoroethyl)-1H-pyrazol-4-yl)-1,3,4-oxadiazol-2-yl)methanone] | 0.5 to 1
Cc1c(-c2nnc(C(=O)N3CCc4[nH]cnc4[C@H]3c3nc4ccccc4s3)o2)cnn1C [Example 1845] | < 0.5
Cc1c(-c2nnc(C(=O)N3CCc4[nH]cnc4[C@@H]3c3nc4ccccc4s3)o2)cnn1C [Example 1846, (R)-(4-(benzo[d]thiazol-2-yl)-6,7-dihydro-1H-imidazo[4,5-c]pyridin-5(4H)-yl)(5-(1,5-dimethyl-1H-pyrazol-4-yl)-1,3,4-oxadiazol-2-yl)methanone] | 1 to 5
O=C(c1nnc(-c2ccc(C(F)(F)F)cn2)o1)N1CCc2[nH]cnc2[C@@H]1c1nc2c(F)cccc2s1 [Example 1847, (R)-(4-(4-fluorobenzo[d]thiazol-2-yl)-6,7-dihydro-1H-imidazo[4,5-c]pyridin-5(4H)-yl)(5-(5-(trifluoromethyl)pyridin-2-yl)-1,3,4-oxadiazol-2-yl)methanone] | 1 to 5
O=C(c1nnc(-c2ccc(C(F)(F)F)cn2)o1)N1CCc2[nH]cnc2[C@H]1c1nc2c(F)cccc2s1 [Example 1848, (S)-(4-(4-fluorobenzo[d]thiazol-2-yl)-6,7-dihydro-1H-imidazo[4,5-c]pyridin-5(4H)-yl)(5-(5-(trifluoromethyl)pyridin-2-yl)-1,3,4-oxadiazol-2-yl)methanone] | 1 to 5

More lines, now with the values ahead:

AC50 [µM] | SMILES
1 to 5 | O=C(c1oc(-c2ccccn2)nc1Br)N1CCc2[nH]cnc2[C@@H]1c1nc2ccccc2s1 [Example 1849, (R)-(4-(benzo[d]thiazol-2-yl)-6,7-dihydro-1H-imidazo[4,5-c]pyridin-5(4H)-yl)(4-bromo-2-(pyridin-2-yl)oxazol-5-yl)methanone]
< 0.5 | O=C(c1oc(-c2ccccn2)nc1Br)N1CCc2[nH]cnc2[C@H]1c1nc2ccccc2s1 [Example 1850]
< 0.5 | CC1(c2nc(C(F)F)c(C(=O)N3CCc4[nH]cnc4[C@H]3c3nc4ccccc4s3)o2)CC1 [Example 1851]
< 0.5 | CC1(c2nc(C(F)F)c(C(=O)N3CCc4[nH]cnc4[C@@H]3c3nc4ccccc4s3)o2)CC1 [Example 1852, (R)-(4-(benzo[d]thiazol-2-yl)-6,7-dihydro-1H-imidazo[4,5-c]pyridin-5(4H)-yl)(4-(difluoromethyl)-2-(1-methylcyclopropyl)oxazol-5-yl)methanone]
1 to 5 | Cn1nc(C2CCC2)cc1C(=O)N1CCc2[nH]cnc2[C@H]1c1nc2c(F)cccc2s1 [Example 1853]
1 to 5 | Cn1nc(C2CCC2)cc1C(=O)N1CCc2[nH]cnc2[C@@H]1c1nc2c(F)cccc2s1 [Example 1854, (R)-(3-cyclobutyl-1-methyl-1H-pyrazol-5-yl)(4-(4-fluorobenzo[d]thiazol-2-yl)-6,7-dihydro-1H-imidazo[4,5-c]pyridin-5(4H)-yl)methanone]
< 0.5 | O=C(c1ccnn1-c1ccccn1)N1CCc2[nH]cnc2[C@H]1c1nc2ccccc2s1 [Example 1855]
< 0.5 | O=C(c1cn[nH]c1C(F)F)N1CCc2[nH]cnc2[C@H]1c1nc2ccccc2s1 [Example 1857]
1 to 5 | O=C(c1cn[nH]c1C(F)F)N1CCc2[nH]cnc2[C@@H]1c1nc2ccccc2s1 [Example 1858, (R)-(4-(benzo[d]thiazol-2-yl)-6,7-dihydro-1H-imidazo[4,5-c]pyridin-5(4H)-yl)(5-(difluoromethyl)-1H-pyrazol-4-yl)methanone]
< 0.5 | O=C(c1cn[nH]c1C(F)F)N1CCc2[nH]cnc2[C@H]1c1nc2c(F)cccc2s1 [Example 1859]
1 to 5 | O=C(c1cn[nH]c1C(F)F)N1CCc2[nH]cnc2[C@@H]1c1nc2c(F)cccc2s1 [Example 1860, (R)-(5-(difluoromethyl)-1H-pyrazol-4-yl)(4-(4-fluorobenzo[d]thiazol-2-yl)-6,7-dihydro-1H-imidazo[4,5-c]pyridin-5(4H)-yl)methanone]
1 to 5 | O=C(c1cn[nH]c1Cl)N1CCc2[nH]cnc2[C@@H]1c1nc2c(F)cccc2s1 [Example 1861, (R)-(5-chloro-1H-pyrazol-4-yl)(4-(4-fluorobenzo[d]thiazol-2-yl)-6,7-dihydro-1H-imidazo[4,5-c]pyridin-5(4H)-yl)methanone]
